Series [1] deals with BMDC. The experiment in a line: Anti-inflammatory activity against R848-stimulated mouse BMDC cells assessed as upregulation of IL-10 production at 5 uM treated for 24 hrs followed by R848 stimulation for 12 hrs by ELISA method (reference value: 100 %). The series is classed as functional. Conditions: time 36 hrs. (In an ELISA, binding on a coated surface is turned into a signal by an enzyme label.)

The nature of series [2]: Stability of compound in human liver microsome assessed as intrinsic clearance by HPLC analysis. The class given is ADME. As to conditions: liver microsomes, read-out: CLH.
Series [3] addresses Cyclin-dependent kinase 8 (Homo sapiens) (UniProt P49336). The experiment in a line: Binding affinity to CDK8 in human HCT-116 cells assessed as thermal stability at 49 degC treated for 4 hrs followed by compound washout by CETSA assay. The series is classed as cell-based. Conditions: dose 0.5-10 µM, DDE = dose-dependent effect.
Series [4] concerns the target T1, Cyclin-dependent kinase 8 (Mus musculus) (UniProt Q8R3L8).
T1 sequence (whole entry): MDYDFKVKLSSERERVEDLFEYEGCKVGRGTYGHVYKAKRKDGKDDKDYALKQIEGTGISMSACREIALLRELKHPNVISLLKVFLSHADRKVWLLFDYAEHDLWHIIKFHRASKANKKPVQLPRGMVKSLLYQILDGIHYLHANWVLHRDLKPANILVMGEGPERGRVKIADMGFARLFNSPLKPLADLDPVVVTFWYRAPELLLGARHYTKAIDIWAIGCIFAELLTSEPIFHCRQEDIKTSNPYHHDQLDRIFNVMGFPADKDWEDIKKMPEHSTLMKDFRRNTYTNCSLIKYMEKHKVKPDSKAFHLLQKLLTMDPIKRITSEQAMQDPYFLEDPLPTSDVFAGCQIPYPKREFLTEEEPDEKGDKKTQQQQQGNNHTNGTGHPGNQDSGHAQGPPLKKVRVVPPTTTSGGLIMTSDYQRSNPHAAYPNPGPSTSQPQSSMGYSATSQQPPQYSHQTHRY
The experiment in a line: Inhibition of CDK8 in R848-stimulated mouse BMDC cells assessed as downregulation of c-Jun phosphorylation at Ser243 at 1 to 4 uM treated for 2 hrs followed by R848 stimulation for 12 hrs by western blot analysis. The class given is cell-based. Conditions: dose 1-4 µM, time 14.0 hrs.

Series [5] relates to BMDC. The experiment in a line: Inhibition of NF-kappa-B phosphorylation in R848-stimulated mouse BMDC cells at 1 to 4 uM treated for 2 hrs followed by R848 stimulation for 12 hrs by western blot analysis. The series is classed as cell-based. Conditions: dose 1-4 µM, time 14.0 hrs. Background: In western blotting, separated proteins are transferred to a membrane and probed.

The test system of series [6] is BMDC. The experiment in a line: Inhibition of ERK phosphorylation in R848-stimulated mouse BMDC cells at 1 to 4 uM treated for 2 hrs followed by R848 stimulation for 12 hrs by western blot analysis. The class given is cell-based. As to conditions: dose 1-4 µM, time 14.0 hrs.
Series [7] can be described thus: Acute toxicity in 12 hr fasted ICR mouse assessed as effect on heart at 2000 mg/kg, po measured after 7 days by hematoxylin and eosin staining based histopathological analysis. The series is classed as organism-based. As to conditions: in vivo, 168 h, time 7 day.
Series [8] can be described thus: Acute toxicity in 12 hr fasted ICR mouse assessed as effect on spleen at 2000 mg/kg, po measured after 7 days by hematoxylin and eosin staining based histopathological analysis. The class given is organism-based. Conditions: in vivo, 168 h, time 7 day.
Series [9] in a line: Stability in human liver microsomes. The series is classed as ADME, Microsome. Background: Microsomes from liver hold many membrane-bound enzymes, among them those of drug oxidation.
Series [10] in a line: AUC (0 to infinity) in Sprague-Dawley rat at 10 mg/kg, po measured for 3 to 1440 mins by HPLC analysis. The series is classed as ADME, organism-based. As to conditions: in vivo.
Series [11] is described as follows: Bioavailability in Sprague-Dawley rat at 10 mg/kg, po measured for 3 to 1440 mins by HPLC analysis. The class given is ADME, organism-based. Conditions: in vivo, time 3-1440 min.
Series [12] has as its system Mus musculus. The experiment in a line: Anti-inflammatory activity in C57BL/6 mouse model of inflammatory bowel disease assessed as decrease in DSS-induced IL-6 levels in serum at 5 to 20 mg/kg, po daily measured after 10 days by ELISA method. The series is classed as functional, organism-based. As to conditions: dose 5-20 mg/kg, time 10.0 day.
Series [13] relates to Mus musculus. The experiment in a line: Anti-inflammatory activity in C57BL/6 mouse model of inflammatory bowel disease assessed as reversal of DSS-induced TLR7 expression in colon tissue at 5 to 20 mg/kg, po measured after 10 days by western blot analysis. The class given is functional, organism-based. As to conditions: dose 5-20 mg/kg, time 10.0 day.
In series [14] the test system is Mus musculus. The experiment in a line: Anti-inflammatory activity in C57BL/6 mouse model of inflammatory bowel disease assessed as reversal of DSS-induced MyD88 expression in colon tissue at 5 to 20 mg/kg, po measured after 10 days by western blot analysis. The series is classed as functional, organism-based. Conditions: dose 5-20 mg/kg, time 10.0 day.

SMILES strings stand for the structures. Activity calls are given as the source filed them. The calls are words filed in the database; no cut-off is given here.

Chain of Cyclin-dependent kinase 8 (Homo sapiens) (P49336 whole entry): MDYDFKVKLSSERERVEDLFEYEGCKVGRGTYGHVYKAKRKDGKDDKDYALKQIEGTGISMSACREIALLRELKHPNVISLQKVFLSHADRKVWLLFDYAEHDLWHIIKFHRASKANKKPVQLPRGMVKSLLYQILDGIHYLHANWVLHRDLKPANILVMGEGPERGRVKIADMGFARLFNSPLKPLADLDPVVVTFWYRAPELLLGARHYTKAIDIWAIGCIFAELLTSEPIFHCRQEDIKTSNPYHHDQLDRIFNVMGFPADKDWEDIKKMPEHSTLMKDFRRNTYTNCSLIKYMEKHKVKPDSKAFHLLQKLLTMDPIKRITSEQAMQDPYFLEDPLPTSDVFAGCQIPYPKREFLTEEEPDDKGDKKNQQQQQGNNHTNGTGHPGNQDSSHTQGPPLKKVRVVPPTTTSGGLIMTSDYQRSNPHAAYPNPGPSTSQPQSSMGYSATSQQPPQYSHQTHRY

For `CCc1ccccc1NC(=O)c1cncc(-c2ccc(C(=O)N3CCNCC3)cc2)c1`, the Activity was 88% in the series on BMDC [1], “Dde” in series [3], “Non-Toxic” in series [7] and “Non-Toxic” in [8]. In series [2], the microsomal CLint is 5.5 µL/min/mg. The inhibition entry (in series [4]; in the series with BMDC [5]; with BMDC [6]) was “Active” in each case. The Stability entry in [9] is “Stable”. Moreover, the total exposure AUC(0-inf) (as a rule, the area under the concentration-time curve extrapolated to infinity) in series [10] was 0.52 µg·h/mL. In series [11], the bioavailability (as a rule, the share of a dose that reaches the circulation, judged against a reference dose that is usually intravenous) turned out to be 29.3%. The result with Mus musculus [12], with Mus musculus [13] and in the series with Mus musculus [14] was Active.

The values above are taken from ChEMBL document CHEMBL5154907, “Discovery and Anti-Inflammatory Activity Evaluation of a Novel CDK8 Inhibitor through Upregulation of IL-10 for the Treatment of Inflammatory Bowel Disease In Vivo” (J Med Chem, 2022).
